Assay results as given in ChEMBL document CHEMBL1157535, “2-Aminobenzophenones as a novel class of bradykinin B1 receptor antagonists” (J Med Chem, 2008).

Key:
Rattus norvegicus [1] = species on record: Rattus norvegicus; conditions: in vivo
Plasma [2] = assay: Drug level in transgenic rat plasma at 0.12 mg/kg, iv; assay type: ADME, organism-based; parameters: dose 0.12 mg/kg, route intravenous; conditions: in vivo
Spinal cord [3] = assay: Drug level in transgenic rat spinal cord at 1.2 mg/kg, iv; assay type: ADME, organism-based; parameters: dose 1.2 mg/kg, route intravenous; conditions: in vivo
Plasma [4] = assay: Drug level in transgenic rat plasma at 12 mg/kg, iv; assay type: ADME, organism-based; parameters: dose 12 mg/kg, route intravenous; conditions: in vivo
Plasma [5] = assay: Drug level in transgenic rat plasma at 1.2 mg/kg, iv; assay type: ADME, organism-based; parameters: dose 1.2 mg/kg, route intravenous; conditions: in vivo
Spinal cord [6] = assay: Drug level in transgenic rat spinal cord at 0.12 mg/kg, iv; assay type: ADME, organism-based; parameters: dose 0.12 mg/kg, route intravenous; conditions: in vivo
human MDR1 (P-gp) = assay: (§1) Apparent permeability in pig LLC-PK1 cells transfected with human MDR1; assay type: ADME, cell-based, Sus scrofa; conditions: LLC-PK1
Brain [7] = assay: Drug level in transgenic rat brain at 1.2 mg/kg, iv; assay type: ADME, organism-based; parameters: dose 1.2 mg/kg, route intravenous; conditions: in vivo
in vivo [8] = conditions: mongrel, dog, iv, 0.25 mg/kg, CL
Spinal cord [9] = assay: Drug level in transgenic rat spinal cord at 12 mg/kg, iv; assay type: ADME, organism-based; parameters: dose 12 mg/kg, route intravenous; conditions: in vivo
Brain [10] = assay: Drug level in transgenic rat brain at 0.12 mg/kg, iv; assay type: ADME, organism-based; parameters: dose 0.12 mg/kg, route intravenous; conditions: in vivo
in vivo [11] = conditions: Sprague-Dawley, rat, po, 10 mg/kg, F
in vivo [12] = conditions: Sprague-Dawley, rat, iv, 2 mg/kg
Brain [13] = assay: Drug level in transgenic rat brain at 12 mg/kg, iv; assay type: ADME, organism-based; parameters: dose 12 mg/kg, route intravenous; conditions: in vivo
in vivo [14] = conditions: mongrel, dog, iv, 0.25 mg/kg, t1/2
in vivo [15] = conditions: Sprague-Dawley, rat, t1/2
[16] = Metabolic stability in Beagle dog liver microsomes after 30 mins; assay type: ADME, Canis lupus familiaris, Microsome; conditions: read-out: Stability
[17] = Metabolic stability in Sprague-Dawley rat liver microsomes after 30 mins; assay type: ADME, Microsome; conditions: read-out: Stability
[18] = Metabolic stability in human liver microsomes after 30 mins; assay type: ADME, Microsome; conditions: read-out: Stability
[19] = Metabolic stability in monkey liver microsomes after 30 mins; assay type: ADME, Macaca mulatta, Microsome; conditions: rhesus monkey, read-out: Stability
Rattus norvegicus [20] = species on record: Rattus norvegicus; conditions: in vivo, po, 10 mg/kg
LLC-PK1 = assay: as §1; assay type: ADME, cell-based, Sus scrofa; conditions: llc-pk1
Canis familiaris = species on record: Canis familiaris; conditions: dog, in vivo, iv, 0.25 mg/kg

Compound	t1/2 (Rattus norvegicus [1])	Papp (human MDR1 (P-gp))	clearance (in vivo [8])	bioavailability (in vivo [11])	clearance (in vivo [12])	half-life (in vivo [14])	half-life (in vivo [15])	t1/2 (Canis familiaris)	other results
O=C(Nc1ccc(S(=O)(=O)Nc2ccccc2C(=O)c2ccccc2)cc1)OCC1CCCO1 (stereo not drawn)	9.7 h	26 ×10⁻⁶ cm/s	17 mL/min/kg	3%	43 mL/min/kg	1.9 h	–	–	concentration (Plasma [2]): 80 nM; concentration (Spinal cord [3]): 597 nM; concentration (Plasma [4]): 13200 nM; concentration (Plasma [5]): 995 nM; concentration (Spinal cord [6]): 97 nM; concentration (Brain [7]): 438 nM; concentration (Spinal cord [9]): 9430 nM; concentration (Brain [10]): 70 nM; concentration (Brain [13]): 5840 nM
CC(=O)Nc1ccc(S(=O)(=O)Nc2ccccc2C(=O)c2ccccn2)cc1	–	–	1.2 mL/min/kg	11%	24 mL/min/kg	1.2 h	1.2 h	–	–
CC(=O)Nc1ccc(S(=O)(=O)Nc2ccccc2C(=O)c2ccccc2)cc1	0.3 h	27 ×10⁻⁶ cm/s	7.5 mL/min/kg	3%	26 mL/min/kg	0.5 h	–	–	remaining at 0.5 h [16]: < 10%; remaining at 0.5 h [17]: < 10%; remaining at 0.5 h [18]: < 10%; remaining at 0.5 h [19]: < 10%
O=C(NCCCN1CCCCC1)Nc1ccc(S(=O)(=O)Nc2ccccc2C(=O)c2ccccc2)cc1	14 h	34 ×10⁻⁶ cm/s	17 mL/min/kg	41%	29 mL/min/kg	1.5 h	–	–	–
O=C(Nc1ccc(S(=O)(=O)Nc2ccccc2C(=O)c2ccccn2)cc1)OCC1CCCO1 (racemic)	1.4 h	–	–	–	–	–	–	1.4 h	F (Rattus norvegicus [20]): 17%; Papp (LLC-PK1): 31 ×10⁻⁶ cm/s
O=C(Nc1ccc(S(=O)(=O)Nc2ccccc2C(=O)c2ccccn2)cc1)OCC1CCCO1 (stereo in doubt; 28)	–	–	–	–	–	–	–	2.6 h	–
O=C(Nc1ccc(S(=O)(=O)Nc2ccccc2C(=O)c2ccccn2)cc1)OCC1CCCO1 (stereo in doubt; 29)	–	33 ×10⁻⁶ cm/s	2.9 mL/min/kg	–	40 mL/min/kg	2.2 h	1.7 h	–	F (Rattus norvegicus [20]): 3%
O=C(Nc1ccc(S(=O)(=O)Nc2ccccc2C(=O)c2ccc(F)cn2)cc1)OCC1CCCO1 (stereo in doubt; 30)	–	26 ×10⁻⁶ cm/s	–	–	–	–	–	1.8 h	–
O=C(Nc1ccc(S(=O)(=O)Nc2ccccc2C(=O)c2ccc(F)cn2)cc1)OCC1CCCO1 (stereo in doubt; 32)	–	–	–	< 1%	26 mL/min/kg	2.8 h	1.1 h	–	–
